Substitutions are numbered along the chain they refer to. Active and inactive are the calls of the source. No cut-off for these calls is given here.
Key:
[1] = molecular target: T1, Tyrosine-protein phosphatase non-receptor type 1 (Homo sapiens, UniProt P18031); test: Inhibition of PTPN1 (unknown origin) using PNPP substrate incubated for 15 mins relative to control
T1 sequence (P18031 whole entry): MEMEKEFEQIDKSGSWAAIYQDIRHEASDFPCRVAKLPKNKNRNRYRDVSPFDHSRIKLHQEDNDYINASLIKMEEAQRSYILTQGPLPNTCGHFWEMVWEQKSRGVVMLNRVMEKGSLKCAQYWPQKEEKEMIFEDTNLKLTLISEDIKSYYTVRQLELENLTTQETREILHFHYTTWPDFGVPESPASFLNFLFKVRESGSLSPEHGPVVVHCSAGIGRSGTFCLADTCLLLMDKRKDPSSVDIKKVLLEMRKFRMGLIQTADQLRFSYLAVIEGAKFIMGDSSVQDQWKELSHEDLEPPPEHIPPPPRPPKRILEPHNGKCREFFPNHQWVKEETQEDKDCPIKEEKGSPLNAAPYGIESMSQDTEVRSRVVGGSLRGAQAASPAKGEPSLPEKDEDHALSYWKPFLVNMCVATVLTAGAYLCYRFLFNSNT

[2] = molecular target: T2, Dual specificity protein phosphatase 5 (Homo sapiens) (UniProt Q16690); test: Potency index, ratio of IC50 for NTS to IC50 for test compound for inhibition of full length DUSP5 (unknown origin) assessed as reduction in de-phosphorylation of GST-tagged recombinant phosphorylated ERK2 incubated for 15 mins by SDS-PAGE based immunoblot assay
T2 sequence (whole entry): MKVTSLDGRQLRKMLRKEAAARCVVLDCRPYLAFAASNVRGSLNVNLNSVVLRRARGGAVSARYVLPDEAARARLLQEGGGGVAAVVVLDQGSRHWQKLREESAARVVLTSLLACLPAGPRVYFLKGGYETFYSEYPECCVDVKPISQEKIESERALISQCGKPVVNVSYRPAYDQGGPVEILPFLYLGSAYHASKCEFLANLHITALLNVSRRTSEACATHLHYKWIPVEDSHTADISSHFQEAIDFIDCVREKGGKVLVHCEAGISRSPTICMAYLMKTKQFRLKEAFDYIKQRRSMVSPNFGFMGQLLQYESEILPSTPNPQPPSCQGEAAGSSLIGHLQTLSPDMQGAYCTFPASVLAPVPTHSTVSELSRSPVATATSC

[3] = system: T3, Dual specificity protein phosphatase 5 (Homo sapiens), Q16690 [C263S]; test: Binding affinity to N-terminal hexa-histidine-tagged and 15N-labeled DUSP5 C263S mutant (unknown origin) expressed in Escherichia coli BL21 (DE3) at 500 uM by 2D 1H-15N HSQC NMR assay
T3 sequence (whole entry): T2 sequence (whole entry) with C263S

For `O=S(=O)([O-])c1cc(O)c2c(S(=O)(=O)[O-])cccc2c1.[Na+].[Na+]`, the IC50 [1] was “Not Active”, the Ratio IC50 [2] was 1000 and the Activity [3] was “Active”.

From ChEMBL document CHEMBL4417628, “Small molecule antagonists of dusp5 and methods of use” (2018)
